According to ChEMBL document CHEMBL3992552, “Mechanisms of action and structure-activity relationships of cytotoxic flavokawain derivatives” (Bioorg Med Chem, 2017):
Calls of active or inactive are those of the source. The rule behind the calls is not given here.

Tests used:
[1] = tested on: RL; test: Cytotoxicity against human RL assessed as cell viability after 48 hrs by Hoechst 33342 staining based assay; type: functional
[2] = tested on: Huh-7; test: Cell cycle arrest in human HuH7 cells assessed as accumulation at M phase by Hoechst staining based fluorescence assay; type: functional
[3] = tested on: MDA-MB-231; test: Induction of apoptosis in human MDA-MB-231 cells harboring p53 mutant assessed as upregulation of cyclinB1 after 18 hrs by Hoechst staining based assay; type: functional, cell-based
[4] = tested on: Huh-7; test: Cell cycle arrest in human HuH7 cells assessed as accumulation at G1/S phase by Hoechst staining based fluorescence assay; type: functional
[5] = tested on: PC-3; test: Cell cycle arrest in human PC3 cells assessed as accumulation at G1/S phase by Hoechst staining based fluorescence assay; type: functional
[6] = tested on: HaCaT; test: Cell cycle arrest in human HaCaT cells assessed as accumulation at G1/S phase by Hoechst staining based fluorescence assay; type: functional
[7] = tested on: HCT-116; test: Cell cycle arrest in human HCT116 cells harboring wild-type p53 assessed as accumulation at M phase at 12 uM measured after 48 hrs by Hoechst staining based fluorescence assay (reference value: 2.3 to […]); type: functional
[8] = tested on: HCT-116; test: Cell cycle arrest in human HCT116 cells harboring wild-type p53 assessed as accumulation at M phase at 24 uM measured after 48 hrs by Hoechst staining based fluorescence assay (reference value: 2.3 to […]); type: functional
[9] = tested on: HCT-116; test: Cell cycle arrest in human HCT116 cells harboring wild-type p53 assessed as accumulation at S phase at 12 uM measured after 48 hrs by Hoechst/BrdU staining based fluorescence assay (reference value: 68%); type: functional
[10] = tested on: HCT-116; test: Cell cycle arrest in human HCT116 cells harboring wild-type p53 assessed as accumulation at S phase at 24 uM measured after 48 hrs by Hoechst/BrdU staining based fluorescence assay (reference value: 68%); type: functional

COc1cc(O)c(C(=O)/C=C/c2ccccc2SC)c(OC)c1
IC50 [1]: 8.9 µM
Activity [2]: Active

COc1cc(OC)c(C(=O)/C=C/c2ccc(F)cc2)c(OC)c1
IC50 [1]: 6.4 µM
Activity [2]: Active
Activity [3]: Active

COc1cc(O)c(C(=O)/C=C/c2ccc(F)cc2)c(OC)c1
IC50 [1]: 5.4 µM

COc1cc(OC)c(C(=O)/C=C/c2ccccc2SC)c(OC)c1
IC50 [1]: 8.3 µM
Activity [2]: Active
Activity [3]: Active

COc1cc(O)c(C(=O)/C=C/c2ccccc2OC)c(OC)c1
IC50 [1]: 10.1 µM

COc1cc(O)c(C(=O)/C=C/c2ccccc2)c(OC)c1 [FLAVOKAWAIN B]
IC50 [1]: 8.2 µM
Activity [4]: Active
Activity [5]: Active
Activity [6]: Active
Activity [3]: Active

COc1cc(OC)c(C(=O)/C=C/c2ccc(Br)cc2)c(OC)c1
IC50 [1]: 8.3 µM
Activity [2]: Active
Activity [3]: Active

COc1cc(OC)c(C(=O)/C=C/c2ccccc2)c(OC)c1
IC50 [1]: 6.9 µM
Activity [3]: Active

COc1cccc(/C=C/C(=O)c2c(O)cc(OC)cc2OC)c1
IC50 [1]: 9 µM
Activity [4]: Active
Activity [6]: Active
Activity [3]: Active

COc1cccc(/C=C/C(=O)c2c(OC)cc(OC)cc2OC)c1
IC50 [1]: 5.9 µM
Activity [7]: 4.5%
Activity [8]: 1.2%
Activity [9]: 20%
Activity [10]: 0.6%
Activity [2]: Active
Activity [3]: Active
